From publication PMC4138103 (PLoS ONE, 2014)
Like-named read-outs stand apart in the source and are kept apart here.

Tested on: Sprague-Dawley rats
Test: Hematology
Assay type: in vivo, Rattus norvegicus
Design: HCT, Hematocrit: unit not given here
Settings: for Emax: Rattus norvegicus; for Basophils / Eosinophils / HB, Hemoglobin / HCT, Hematocrit / Lymphocytes / MCH, Mean corpuscular hemoglobin / MCHC, Mean corpuscular hemoglobin concentration / MCV, Mean corpuscular volume / MPV, Mean platelet volume / Monocytes / Neutrophils / PDW, Platelet distribution width / PLT, Platelet count / RBC, Red cell count / WBC, Leukocyte total count: group mean
Experimental: Basic blood picture analysis was carried out using Advia 120 analyzer (Bayer, later Siemens Diagnostic Division, Dublin, Ireland). This analysis includes red cell count (RBC), hemoglobin (HB), hematocrit (HCT), platelet count (PLT), leukocyte total count (WBC) and differential count as well as the calculated red cell and platelet parameters mean corpuscular volume (MCV), mean corpuscular hemoglobin (MCH), mean corpuscular hemoglobin concentration (MCHC), red cell distribution width - standard deviation (RDW-SD), platelet distribution width (PDW) and mean platelet volume (MPV). Blood cell counting is based on isovolumetric sphering and fixing the cells, stains and light scattering. Visual leukocyte differential counting was done after May-Grünwald-Giemsa staining.
Data were also analyzed using the BMD method, which is based on dose-response modeling of the full data set using a nested family of exponential and Hill models. The analyses were done on data of males and females combined, using sex as a covariate. […] In that case, different Critical Effect Doses (CEDs) and CEDs at the lowest bound of the confidence interval (CED-L) were generated for each sex. If no difference between sexes is detected, a CED and CED-Ls for the combined data is generated. However, this was also done if the curve fits are close, and separate analyses for males and females were then performed manually. CEDs and CED-Ls were calculated at the predefined Critical Effect Size (CES) of 5% (EFSA standard) or 10%.

[1] = F, CES 5%, model E2, adipose tissue concentration based
[2] = F, CES 5%, model E3, adipose tissue concentration based
[3] = F, CES 10%, model E2, adipose tissue concentration based
[4] = F, CES 10%, model E3, adipose tissue concentration based
[5] = M, CES 5%, model E4, adipose tissue concentration based
[6] = M, CES 10%, model E4, adipose tissue concentration based
[7] = females, total dose 3 mg/kg bw, N=5
[8] = females, total dose 10 mg/kg bw, N=5
[9] = females, total dose 30 mg/kg bw, N=5
[10] = females, total dose 100 mg/kg bw, N=5
[11] = females, total dose 300 mg/kg bw, N=5
[12] = females, total dose 1000 mg/kg bw, N=5
[13] = females, total dose 1000 mg/kg bw, N=5, p<0.01 vs. control
[14] = females, total dose 1700 mg/kg bw, N=5

SMILES: Clc1cc(Cl)c(-c2cc(Cl)c(Cl)c(Cl)c2Cl)cc1Cl [PCB 180, 2,2′,3′,4,4′,5,5′-heptachlorobiphenyl]
- CED, Hematocrit [1]: 5430 µg/g lipid
- CED, Hemoglobin [1]: 4840 µg/g lipid
- CED, Red blood cell count [1]: 4170 µg/g lipid
- CED-L, Hematocrit [1]: 4178 µg/g lipid
- CED-L, Hemoglobin [1]: 3889 µg/g lipid
- CED-L, Red blood cell count [1]: 3327 µg/g lipid
- CED, Red cell distribution width - SD [2]: 8370 µg/g lipid
- CED-L, Red cell distribution width - SD [2]: 5756 µg/g lipid
- CED, Hematocrit [3]: 11100 µg/g lipid
- CED, Hemoglobin [3]: 9930 µg/g lipid
- CED, Red blood cell count [3]: 8560 µg/g lipid
- CED-L, Hematocrit [3]: 8582 µg/g lipid
- CED-L, Hemoglobin [3]: 7989 µg/g lipid
- CED-L, Red blood cell count [3]: 6834 µg/g lipid
- CED, Red cell distribution width - SD [4]: 10700 µg/g lipid
- CED-L, Red cell distribution width - SD [4]: 9281 µg/g lipid
- CED, Hematocrit [5]: 601 µg/g lipid
- CED, Hemoglobin [5]: 872 µg/g lipid
- CED, Platelet count [5]: 156 µg/g lipid
- CED, Red blood cell count [5]: 598 µg/g lipid
- CED-L, Hematocrit [5]: 247 µg/g lipid
- CED-L, Hemoglobin [5]: 227 µg/g lipid
- CED-L, Platelet count [5]: 36.4 µg/g lipid
- CED-L, Red blood cell count [5]: 337 µg/g lipid
- CED, Hematocrit [6]: 2090 µg/g lipid
- CED, Platelet count [6]: 539 µg/g lipid
- CED, Red blood cell count [6]: 1890 µg/g lipid
- Emax (Erythrocyte, F, model E2, controls vs high dose according to the fitted model, read-out: Maximum response, Red blood cell count): -13%
- Emax (Erythrocyte, females, controls vs high dose, fitted model, read-out: Red blood cell count, Maximum response): -12.8%
- Emax (Erythrocyte, males, controls vs high dose, fitted model, read-out: Red blood cell count, Maximum response): -12.5%
- Emax (Erythrocyte, model E4, controls vs high dose according to the fitted model, read-out: Maximum response, Red blood cell count): -12.4%
- Emax (F, model E2, controls vs high dose according to the fitted model, read-out: Maximum response, Hematocrit): -10.1%
- Emax (F, model E2, controls vs high dose according to the fitted model, read-out: Maximum response, Hemoglobin): -11.3%
- Emax (F, model E3, controls vs high dose according to the fitted model, read-out: Maximum response, Red cell distribution width - SD): 11.1%
- Emax (Platelet, males, controls vs high dose, fitted model, read-out: Platelet count, Maximum response): 12%
- Emax (Platelet, model E4, controls vs high dose according to the fitted model, read-out: Maximum response, Platelet count): 12%
- Emax (females, controls vs high dose, fitted model, read-out: Hematocrit, Maximum response): -10%
- Emax (females, controls vs high dose, fitted model, read-out: Hemoglobin, Maximum response): -11.1%
- Emax (females, controls vs high dose, fitted model, read-out: Red cell distribution width - SD, Maximum response): 11.5%
- Emax (males, controls vs high dose, fitted model, read-out: Hematocrit, Maximum response): -11.8%
- Emax (males, controls vs high dose, fitted model, read-out: Hemoglobin, Maximum response): -8.6%
- Emax (model E4, controls vs high dose according to the fitted model, read-out: Maximum response, Hematocrit): -11.7%
- Emax (model E4, controls vs high dose according to the fitted model, read-out: Maximum response, Hemoglobin): -8.59%
- Basophils [7]: 0.0%
- Eosinophils [7]: 1.2%
- HB, Hemoglobin [7]: 165 g/L
- HCT, Hematocrit [7]: 0.44
- Lymphocytes [7]: 88.4%
- MCH, Mean corpuscular hemoglobin [7]: 23.1 pg
- MCHC, Mean corpuscular hemoglobin concentration [7]: 371 g/L
- MCV, Mean corpuscular volume [7]: 62.3 fL
- MPV, Mean platelet volume [7]: 6.74 fL
- Monocytes [7]: 2.6%
- Neutrophils [7]: 7.8%
- PDW, Platelet distribution width [7]: 7.26 fL
- PLT, Platelet count [7]: 8.17e+11 L⁻¹
- RBC, Red cell count [7]: 7.15e+12 L⁻¹
- WBC, Leukocyte total count [7]: 1.422e+10 L⁻¹
- Basophils [8]: 0.0%
- Eosinophils [8]: 0.2%
- HB, Hemoglobin [8]: 166 g/L
- HCT, Hematocrit [8]: 0.45
- Lymphocytes [8]: 92.0%
- MCH, Mean corpuscular hemoglobin [8]: 23.0 pg
- MCHC, Mean corpuscular hemoglobin concentration [8]: 372 g/L
- MCV, Mean corpuscular volume [8]: 61.8 fL
- MPV, Mean platelet volume [8]: 6.72 fL
- Monocytes [8]: 2%
- Neutrophils [8]: 5.8%
- PDW, Platelet distribution width [8]: 7.20 fL
- PLT, Platelet count [8]: 8.05e+11 L⁻¹
- RBC, Red cell count [8]: 7.23e+12 L⁻¹
- WBC, Leukocyte total count [8]: 1.276e+10 L⁻¹
- Basophils [9]: 0.0%
- Eosinophils [9]: 1.6%
- HB, Hemoglobin [9]: 165 g/L
- HCT, Hematocrit [9]: 0.45
- Lymphocytes [9]: 88.8%
- MCH, Mean corpuscular hemoglobin [9]: 22.9 pg
- MCHC, Mean corpuscular hemoglobin concentration [9]: 368 g/L
- MCV, Mean corpuscular volume [9]: 62.2 fL
- MPV, Mean platelet volume [9]: 6.74 fL
- Monocytes [9]: 1.4%
- Neutrophils [9]: 8.2%
- PDW, Platelet distribution width [9]: 7.32 fL
- PLT, Platelet count [9]: 8.47e+11 L⁻¹
- RBC, Red cell count [9]: 7.22e+12 L⁻¹
- WBC, Leukocyte total count [9]: 1.544e+10 L⁻¹
- Basophils [10]: 0.0%
- Eosinophils [10]: 0.8%
- HB, Hemoglobin [10]: 169 g/L
- HCT, Hematocrit [10]: 0.46
- Lymphocytes [10]: 90.8%
- MCH, Mean corpuscular hemoglobin [10]: 22.8 pg
- MCHC, Mean corpuscular hemoglobin concentration [10]: 370 g/L
- MCV, Mean corpuscular volume [10]: 61.6 fL
- MPV, Mean platelet volume [10]: 6.72 fL
- Monocytes [10]: 1.4%
- Neutrophils [10]: 7.0%
- PDW, Platelet distribution width [10]: 7.14 fL
- PLT, Platelet count [10]: 8.74e+11 L⁻¹
- RBC, Red cell count [10]: 7.4e+12 L⁻¹
- WBC, Leukocyte total count [10]: 1.654e+10 L⁻¹
- Basophils [11]: 0.0%
- Eosinophils [11]: 1.2%
- HB, Hemoglobin [11]: 166 g/L
- HCT, Hematocrit [11]: 0.45
- Lymphocytes [11]: 90.6%
- MCH, Mean corpuscular hemoglobin [11]: 23.1 pg
- MCHC, Mean corpuscular hemoglobin concentration [11]: 371 g/L
- MCV, Mean corpuscular volume [11]: 62.2 fL
- MPV, Mean platelet volume [11]: 6.98 fL
- Monocytes [11]: 2.2%
- Neutrophils [11]: 6.0%
- PDW, Platelet distribution width [11]: 7.58 fL
- PLT, Platelet count [11]: 8.2e+11 L⁻¹
- RBC, Red cell count [11]: 7.19e+12 L⁻¹
- WBC, Leukocyte total count [11]: 1.448e+10 L⁻¹
- Basophils [12]: 0.0%
- Eosinophils [12]: 1.2%
- Lymphocytes [12]: 89.8%
- MCH, Mean corpuscular hemoglobin [12]: 23.1 pg
- MCHC, Mean corpuscular hemoglobin concentration [12]: 366 g/L
- MCV, Mean corpuscular volume [12]: 63.2 fL
- MPV, Mean platelet volume [12]: 6.74 fL
- Monocytes [12]: 3.2%
- Neutrophils [12]: 5.8%
- PDW, Platelet distribution width [12]: 7.26 fL
- PLT, Platelet count [12]: 8.69e+11 L⁻¹
- WBC, Leukocyte total count [12]: 1.392e+10 L⁻¹
- HB, Hemoglobin [13]: 154 g/L
- RBC, Red cell count [13]: 6.66e+12 L⁻¹
- HCT, Hematocrit (females, total dose 1000 mg/kg bw, N=5, p<0.05 vs. control): 0.42
- Basophils [14]: 0.0%
- Eosinophils [14]: 1.0%
- Lymphocytes [14]: 87.6%
- MCH, Mean corpuscular hemoglobin [14]: 23.3 pg
- MCHC, Mean corpuscular hemoglobin concentration [14]: 366 g/L
- MCV, Mean corpuscular volume [14]: 63.7 fL
- MPV, Mean platelet volume [14]: 6.68 fL
- Monocytes [14]: 2.2%
- Neutrophils [14]: 9.2%
- PDW, Platelet distribution width [14]: 7.18 fL
- PLT, Platelet count [14]: 8.28e+11 L⁻¹
- WBC, Leukocyte total count [14]: 1.35e+10 L⁻¹
- HB, Hemoglobin (females, total dose 1700 mg/kg bw, N=5, p<0.001 vs. control): 150 g/L
